Laboratory results published in ChEMBL document CHEMBL3885861, “Open TG-GATES”.

Species: Rattus norvegicus
Assay: Open TG-GATES - Regimen: Daily Repeat
Format: toxicity, organism-based, Sprague-Dawley
Parameters: regimen Daily Repeat, gender Male, age 6 weeks
Conditions: in vivo, po, 0 mg/kg, route gavage, dose level Control; for APTT / Bas / Eos / Fbg / Hb / Lym / MCH / MCHC / MCV / Mono / Neu / PT / Plat / RBC / Ret / WBC: tissue Blood; for KIDNEY_L / KIDNEY_R / KIDNEY_TOTAL: tissue Kidney; for LIVER: tissue Liver; for ALP / ALT / AST / BUN / CRE / Ca / Cl / DBIL / GLC / IP / K / LDH / Na / PL / RALB / TBIL / TC / TG / TP / gamma-GTP: tissue Plasma

## OCCN1CCN(CCCN2c3ccccc3Sc3ccc(C(F)(F)F)cc32)CC1 [FLUPHENAZINE]
72 h, time 3 day
  TERMINAL_BW: 233.9 g
  APTT: 16.9 s
  Bas: 0%
  Eos: 1%
  Fbg: 232.5 mg/dL
  Hb: 13.6 g/dL
  Lym: 77%
  MCH: 21.5 pg
  MCHC: 33.3%
  MCV: 64.4 fL
  Mono: 7.2%
  Neu: 15%
  PT: 12 s
  Plat: 126.3 x10_4/uL
  RBC: 632.2 x10_4/ul
  Ret: 6.2%
  WBC: 99.4 x10_2/uL
  KIDNEY_L: 1.1 g
  KIDNEY_R: 1.1 g
  KIDNEY_TOTAL: 2.2 g
  LIVER: 11.9 g
  ALP: 922 IU/L
  ALT: 35.2 IU/L
  AST: 60.2 IU/L
  BUN: 17.2 mg/dL
  CRE: 0.6 mg/dL
  Ca: 10.8 mg/dL
  Cl: 104.5 meq/L
  DBIL: 0.035 mg/dL
  GLC: 185 mg/dL
  IP: 8.5 mg/dL
  K: 4.9 meq/L
  LDH: 77.2 IU/L
  Na: 137.8 meq/L
  PL: 163 mg/dL
  RALB: 4 g/dL
  TBIL: 0.3 mg/dL
  TC: 86.2 mg/dL
  TG: 96.8 mg/dL
  TP: 5.8 g/dL
  gamma-GTP: 0.5 IU/L
[…], time 7 day
  TERMINAL_BW: 262.6 g
  APTT: 16.3 s
  Bas: 0%
  Eos: 1%
  Fbg: 239.4 mg/dL
  Hb: 13.5 g/dL
  Lym: 80.6%
  MCH: 21.6 pg
  MCHC: 33.5%
  MCV: 64.4 fL
  Mono: 4%
  Neu: 15.2%
  PT: 11.9 s
  Plat: 114.7 x10_4/uL
  RBC: 627.6 x10_4/ul
  Ret: 5.2%
  WBC: 114 x10_2/uL
  KIDNEY_L: 1.2 g
  KIDNEY_R: 1.2 g
  KIDNEY_TOTAL: 2.3 g
  LIVER: 13.1 g
  ALP: 774.2 IU/L
  ALT: 30.4 IU/L
  AST: 61.6 IU/L
  BUN: 18.4 mg/dL
  CRE: 0.5 mg/dL
  Ca: 10.5 mg/dL
  Cl: 106.2 meq/L
  DBIL: 0.016 mg/dL
  GLC: 196.2 mg/dL
  IP: 8.4 mg/dL
  K: 4.6 meq/L
  LDH: 82.6 IU/L
  Na: 138.8 meq/L
  PL: 156 mg/dL
  RALB: 3.9 g/dL
  TBIL: 0.3 mg/dL
  TC: 79.4 mg/dL
  TG: 101 mg/dL
  TP: 5.9 g/dL
  gamma-GTP: 1.6 IU/L
[…], time 14 day
  TERMINAL_BW: 300.9 g
  APTT: 17.2 s
  Bas: 0%
  Eos: 0.6%
  Fbg: 235.6 mg/dL
  Hb: 14.2 g/dL
  Lym: 82.8%
  MCH: 20.3 pg
  MCHC: 33.3%
  MCV: 61.1 fL
  Mono: 5.4%
  Neu: 11%
  PT: 11.7 s
  Plat: 107.2 x10_4/uL
  RBC: 699.2 x10_4/ul
  Ret: 3.7%
  WBC: 145.4 x10_2/uL
  KIDNEY_L: 1.2 g
  KIDNEY_R: 1.2 g
  KIDNEY_TOTAL: 2.4 g
  LIVER: 13.9 g
  ALP: 734.4 IU/L
  ALT: 30.6 IU/L
  AST: 55.8 IU/L
  BUN: 19.8 mg/dL
  CRE: 0.5 mg/dL
  Ca: 11 mg/dL
  Cl: 102.6 meq/L
  DBIL: 0 mg/dL
  GLC: 186.6 mg/dL
  IP: 8.5 mg/dL
  K: 4.5 meq/L
  LDH: 97.4 IU/L
  Na: 135.8 meq/L
  PL: 166 mg/dL
  RALB: 4.2 g/dL
  TBIL: 0.3 mg/dL
  TC: 77 mg/dL
  TG: 181.8 mg/dL
  TP: 6.2 g/dL
  gamma-GTP: 1.4 IU/L
[…], time 28 day
  TERMINAL_BW: 402.6 g
  APTT: 17.2 s
  Bas: 0%
  Eos: 1%
  Fbg: 231 mg/dL
  Hb: 15.2 g/dL
  Lym: 84.8%
  MCH: 19.7 pg
  MCHC: 33.4%
  MCV: 58.8 fL
  Mono: 4.8%
  Neu: 9.8%
  PT: 11.8 s
  Plat: 92.5 x10_4/uL
  RBC: 774 x10_4/ul
  Ret: 2.7%
  WBC: 160.8 x10_2/uL
  KIDNEY_L: 1.5 g
  KIDNEY_R: 1.5 g
  KIDNEY_TOTAL: 2.9 g
  LIVER: 17.1 g
  ALP: 649.8 IU/L
  ALT: 32.2 IU/L
  AST: 57 IU/L
  BUN: 20.6 mg/dL
  CRE: 0.6 mg/dL
  Ca: 10.8 mg/dL
  Cl: 104.8 meq/L
  DBIL: 0.01 mg/dL
  GLC: 197.4 mg/dL
  IP: 7 mg/dL
  K: 4.5 meq/L
  LDH: 80 IU/L
  Na: 140.8 meq/L
  PL: 171.6 mg/dL
  RALB: 4.1 g/dL
  TBIL: 0.3 mg/dL
  TC: 74.6 mg/dL
  TG: 216 mg/dL
  TP: 6.4 g/dL
  gamma-GTP: 1 IU/L
